The values below come from ChEMBL document CHEMBL1138450, “Carbonic anhydrase activators: activation of human isozymes I, II and IX with phenylsulfonylhydrazido l-histidine derivatives” (Bioorg Med Chem Lett, 2009).

For experiment [1], the target named is Carbonic anhydrase 9 (Homo sapiens) (UniProt Q16790). Nature of the experiment: Activation of human recombinant CA9 catalytic domain by stopped flow CO2 hydration assay.
The target in experiment [2] is Carbonic anhydrase 2 (Homo sapiens) (UniProt P00918). Nature of the experiment: Activation of human recombinant CA2 by stopped flow CO2 hydration assay.
The target in experiment [3] is Carbonic anhydrase 1 (Homo sapiens) (UniProt P00915). Nature of the experiment: Activation of human recombinant CA1 by stopped flow CO2 hydration assay.

Each structure is given as a SMILES string.

Carbonic anhydrase 1 (Homo sapiens), sequence (P00915 2-261 limits assumed): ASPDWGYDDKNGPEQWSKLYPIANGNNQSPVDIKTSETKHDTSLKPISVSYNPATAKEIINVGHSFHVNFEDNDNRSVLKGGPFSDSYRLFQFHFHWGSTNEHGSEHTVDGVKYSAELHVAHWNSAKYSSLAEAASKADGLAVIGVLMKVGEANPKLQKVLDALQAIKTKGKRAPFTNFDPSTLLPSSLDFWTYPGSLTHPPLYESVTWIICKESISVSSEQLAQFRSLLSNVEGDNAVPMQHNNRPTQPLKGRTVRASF

On to `COc1ccc(S(=O)(=O)NNC(=O)[C@@H](N)Cc2c[nH]cn2)cc1`, for which the KA was 27.4 µM in experiment [1], 38 µM in experiment [2] and 44.8 µM in experiment [3].
In the case of `N[C@@H](Cc1c[nH]cn1)C(=O)NNS(=O)(=O)c1ccc(I)cc1`, the KA in experiment [1] is 14.1 µM; in experiment [2] it was 0.21 µM; in experiment [3], 76.3 µM.
Take `N[C@@H](Cc1c[nH]cn1)C(=O)NNS(=O)(=O)c1ccc(C(F)(F)F)cc1`: the figures for the KA in experiment [1], in experiment [2] and in experiment [3] were 22.4 µM, 49.5 µM and 38.9 µM, respectively.
For the molecule `N#Cc1ccc(S(=O)(=O)NNC(=O)[C@@H](N)Cc2c[nH]cn2)cc1`, the KA was found to be 17.8 µM in experiment [1], 28.7 µM in experiment [2] and 40.3 µM in experiment [3].
In the same order, the values of `CC(C)(C)c1ccc(S(=O)(=O)NNC(=O)[C@@H](N)Cc2c[nH]cn2)cc1` are 29.8 µM, 45.2 µM and 78.9 µM.
Take `N[C@@H](Cc1c[nH]cn1)C(=O)NNS(=O)(=O)c1ccc(-c2ccccc2)cc1`: the KA was 28.5 µM in experiment [1], 51.7 µM in experiment [2] and 33.1 µM in experiment [3].
As for `N[C@@H](Cc1c[nH]cn1)C(=O)NNS(=O)(=O)c1c(F)c(F)c(F)c(F)c1F`, the figures for the KA in experiment [1], in experiment [2] and in experiment [3] were 30.2 µM, 50.2 µM and 42.5 µM, respectively.
In the same order, the values of `Cc1ccc(S(=O)(=O)NNC(=O)[C@@H](N)Cc2c[nH]cn2)cc1` are 18.1 µM, 25 µM and 46.8 µM.
`N[C@@H](Cc1c[nH]cn1)C(=O)NNS(=O)(=O)c1ccc(F)cc1`: the KA came out at 19.5 µM in experiment [1], 44.8 µM in experiment [2] and 63.4 µM in experiment [3].
For `N[C@@H](Cc1c[nH]cn1)C(=O)NNS(=O)(=O)c1ccc(Cl)cc1`, the KA in experiment [1] was determined as 35.4 µM; in experiment [2], 6.53 µM; in experiment [3] it was 70.1 µM.
Turning to `N[C@@H](Cc1c[nH]cn1)C(=O)NNS(=O)(=O)c1ccc(Br)cc1`, the KA in experiment [1] worked out at 13.8 µM; in experiment [2] it was 19.6 µM; in experiment [3], 55.7 µM.
As for `N[C@@H](Cc1c[nH]cn1)C(=O)NNS(=O)(=O)c1ccc2ccccc2c1`, the KA in experiment [1] was 24.1 µM; in experiment [2], 18 µM; in experiment [3], 63.8 µM.
In the same order, the values of `N[C@@H](Cc1c[nH]cn1)C(=O)NNS(=O)(=O)c1ccc([N+](=O)[O-])cc1` are 30.5 µM, 45.6 µM and 54.7 µM.
